In brackets after ≈: the same amount, converted by molar mass.
Tested on: Mycobacterium tuberculosis
Test: Antituberculosis activity against Mycobacterium tuberculosis
Assay type: functional

For COc1nc2ccc(Br)cc2cc1[C@@H](c1ccccc1)[C@@](O)(CCN(C)C)c1cccc2ccccc12 [BEDAQUILINE], which MIC99 is on record?
The MIC99 was 0.06 µg/mL (≈ 0.108 µM).

Reference: ChEMBL document CHEMBL1140613, “Antituberculosis drugs: ten years of research” (2007)
